Measured values published in ChEMBL document CHEMBL1142732, “In-depth study of tripeptide-based alpha-ketoheterocycles as inhibitors of thrombin. Effective utilization of the S1' subsite and its implications to structure-based drug design” (J Med Chem, 2005).

What was measured:
Cavia porcellus [1] = assay: Percent change in blood pressure in guinea pig at 3 mg/kg dose
Prothrombin [2] = biological target: T1, Prothrombin (Homo sapiens, UniProt P00734); assay: Inhibitory concentration against human alpha thrombin
Prothrombin [3] = biological target: T1, Prothrombin; assay: Binding affinity determined against human alpha thrombin
Serine protease 1 = biological target: T2, Serine protease 1 (Bos taurus, UniProt P00760); assay: Binding affinity against bovine trypsin
T2 sequence (P00760 whole entry): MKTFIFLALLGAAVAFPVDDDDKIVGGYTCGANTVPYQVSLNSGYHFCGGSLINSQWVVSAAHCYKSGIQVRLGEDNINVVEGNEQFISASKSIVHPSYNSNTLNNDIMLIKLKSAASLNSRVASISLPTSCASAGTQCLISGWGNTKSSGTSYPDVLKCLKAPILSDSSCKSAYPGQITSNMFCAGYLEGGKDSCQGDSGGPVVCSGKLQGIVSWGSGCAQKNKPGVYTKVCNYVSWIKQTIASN

Homo sapiens = species on record: Homo sapiens; assay: Inhibitory concentration against gel filtered platelet aggregation induced by alpha thrombin; assay type: functional
Cavia porcellus [4] = assay: Percent change in blood pressure in guinea pig at 10 mg/kg dose

SMILES	Delta BP (Cavia porcellus [1]) [%]	IC50 (Prothrombin [2]) [nM]	Ki (Prothrombin [3]) [nM]	Ki (Serine protease 1) [nM]	IC50 (Homo sapiens) [nM]	Delta BP (Cavia porcellus [4]) [%]
CN[C@H](Cc1ccccc1)C(=O)N1CCC[C@H]1C(=O)NC(CCCN=C(N)N)C(=O)c1nc2ccc(O)cc2s1 (some centres undefined)	-34					
CC(=O)N1CCC[C@H]1C(=O)NC(CCCN=C(N)N)C(=O)c1nc2ccccc2s1 (some centres undefined)		14000				
CN[C@H](Cc1ccccc1)C(=O)N1CCC[C@H]1C(=O)N[C@H](CCCCN)C(=O)c1nc2ccccc2s1	-41		210	20		
CNC1(C(=O)N2CCC[C@H]2C(=O)NC(CCCN=C(N)N)C(=O)c2nc3ccccc3s2)CCCCC1 (some centres undefined)		490	73	2.6		
CN[C@H](Cc1ccccc1)C(=O)N1CCC[C@H]1C(=O)NC(CCCN=C(N)N)C(=O)c1nc2ccc(F)cc2s1 (some centres undefined)				1.5		
CN[C@H](Cc1ccccc1)C(=O)N1CCC[C@H]1C(=O)N[C@@H](CCCNC(=N)N)C(=O)c1ccccn1		930				
CN[C@H](Cc1ccccc1)C(=O)N1CCC[C@H]1C(=O)N[C@@H](CCCN=C(N)N)C(O)c1nc2ccccc2s1 (stereo in doubt; form 2)		17000	1600	250000		
CN[C@H](Cc1ccccc1)C(=O)N1CCC[C@H]1C(=O)NC(CCCN=C(N)N)C(=O)c1nc2ccc(OC)cc2s1 (some centres undefined)	-44			2		
CN[C@H](Cc1ccccc1)C(=O)N1CCC[C@H]1C(=O)NC(CCCN=C(N)N)C(=O)c1nc2ccc(CO)cc2s1 (some centres undefined)				5.3		
CN[C@@H](C(=O)N1CCC[C@H]1C(=O)NC(CCCN=C(N)N)C(=O)c1nc2ccccc2s1)c1ccccc1 (some centres undefined)	-63	34	0.46		17	
N=C(N)NCCCC(NC(=O)C1CCCC1)C(=O)c1nc2ccccc2s1 (centres undefined)				30		
CN[C@H](Cc1ccccc1)C(=O)N1CCC[C@H]1C(=O)NC(CCCN=C(N)N)C(=O)c1nc(C(=O)NCCc2ccccc2)cs1 (some centres undefined)		830	120	5		
N=C(N)NCCCC(NC(=O)[C@@H]1CCCN1C(=O)[C@@H](CC1CCCCC1)NCC(=O)O)C(=O)c1nc2ccccc2s1 (some centres undefined)		29	0.36	22	16	-47
N=C(N)NCCCC(NC(=O)[C@@H]1CCCN1C(=O)C(O)C1c2ccccc2-c2ccccc21)C(=O)c1nc2ccccc2s1 (some centres undefined)		95	3.1	2		-71
CNC(C(=O)N1CCC[C@H]1C(=O)NC(CCCN=C(N)N)C(=O)c1nc2ccccc2s1)(c1ccccc1)c1ccccc1 (some centres undefined)		15	2.1	1.8		
CN[C@H](Cc1ccccc1)C(=O)N1CCC[C@H]1C(=O)N[C@@H](CCCN=C(N)N)C(O)c1nc2ccccc2s1 (stereo in doubt; form 1)		48000	5300	180000		
C[C@@](N)(Cc1ccccc1)C(=O)N1CCC[C@H]1C(=O)NC(CCCN=C(N)N)C(=O)c1nc2ccccc2s1 (some centres undefined)				3.9		
CN[C@H](Cc1ccccc1)C(=O)N1CCC[C@H]1C(=O)NC(CCCN=C(N)N)C(=O)c1nc2ccc3ccccc3c2s1 (some centres undefined)		60	0.58	15		-51
CN[C@H](Cc1ccccc1)C(=O)N1CCC[C@H]1C(=O)N[C@@H](CCCCN)C(=O)c1nc2ccccc2s1	-45	650	38	4.3		
CN[C@H](Cc1ccccc1)C(=O)N1CCC[C@H]1C(=O)NC(CCCN=C(N)N)C(=O)c1nc2ccccc2n1C (some centres undefined)	-30	110	8.1	290	59	
Cc1cccc(C(C)(C)CN(CC(=O)N[C@@H](CCCN=C(N)N)C(=O)c2nc3ccccc3s2)C(=O)CCc2ccccc2)c1		4000	400	57		
CS(=O)(=O)CC[C@H](NS(=O)(=O)Cc1ccccc1)C(=O)N1CCC[C@H]1C(=O)N[C@@H](CCCNC(=N)N)C(=O)c1nc2ccccc2s1		95	1.5	2.7	37	-64
CCCC(CCC)C(=O)N[C@@H](CC(=O)OC)C(=O)N1CCC[C@H]1C(=O)N[C@@H](CCCNC(=N)N)C(=O)c1nc2ccccc2s1		56	1.4	16	16	
CCS(=O)(=O)N[C@H](Cc1ccccc1)C(=O)N1CCC[C@H]1C(=O)NC(C(=O)c1nc2ccccc2s1)C1CCC(N)CC1 (some centres undefined)		460	53	87	120	
CN[C@H](Cc1ccccc1)C(=O)N1CCC[C@H]1C(=O)N[C@H](C[C@H]1CCCN(C(=N)N)C1)C(=O)c1nc2ccccc2s1			380	540		
CN[C@H](Cc1ccccc1)C(=O)N1CCC[C@H]1C(=O)NC(CCCN=C(N)N)C(=O)c1nc2ccccc2[nH]1 (some centres undefined)		360	9.6	12		
